From patent US20250042908A1, “SALTS FOR MTOR COMPOUNDS” (GALDERMA HOLDING S.A., priority 2022, published 2025)
Where a name gives a salt, the structure may show the parent alone. Read-outs that look alike come from different tables or passages of the source.

Experiments:
[1] = Solubility of free base and salts in 6 different media (UPLC-UV); format: physicochemical; conditions: target concentration 30 mg/ml; for solubility at 24 h: thermodynamic from solid
Experimental: The following protocol has been used to prepare samples for solubility measurements at room temperature in the 6 different media. First, weigh appropriate amount of each salt and free base compound to reach the desired target concentration (30 mg/ml). Addition at room temperature the studied media to reach the selected target concentration, follow by orbital stirring at room temperature for 24 h, while protected from light. Except for the glycerin medium, separation of the soluble fraction from the non-soluble fraction is performed by centrifugation (15 min at 18000 rpm) followed by filtration on PTFE 0.45 μm membrane. For the glycerin medium, 3 steps of centrifugation (15 mw at 18000 rpm) to collect the supernatant was performed. The resulting filtrates and supernatant for glycerin medium were diluted in appropriate solvents described in the following table to be in the range of calibration curve. Quantification of the diluted and undiluted samples was performed using UPLC-UV.
A standard calibration curve (chromatographic UV peak area vs concentration) between 0.5 μg/mL and 500 μg/mL was established in DMSO according to the following protocol. First, weighing 1 mg free base, then addition of DMSO until a 1 mg/mL clear DMSO Stock solution is obtained. Next, selected compound DMSO solutions at 5 different concentrations (500 ag/mL, 250 ag/mL, 100 ag/ml, 25 μg/ml and 0.5 μg/mL) were prepared by dilution with pure DMSO.
Samples were analysed by UPLC-UV-MS according to the following: (a) Instrument: Waters Acquity H-Class with PDA and QDa detectors; (b) Column: Waters Acquity BEH C18, 1.7 m, 2.1×50 mm; (c) Flow rate: 0.65 ml/min; (d) UV detection: 220 nm, 254 nm, 290 nm; (e) Column temperature: 40° C.; (f) Injection volume: 0.4 μl; (g) Mobile phase: Gradient with solutions A and B prepared according to Table 6; (h) Ionisation mode: ESI+/ESI−; (i) Source temperature: 600° C.; (j) Capillary voltage: 0.8 kV; and (k) Cone voltage: +20V/−20V.
(§1) The target concentration tested to measure the maximum solubility of the 3 salts (phosphate, malonate and malate) and free base in 6 different media was 30 mg/ml. Solids in suspension in water solubility assays have been collected by centrifugation (15 min at 18000 rpm) after 24 h stirring for XRPD analysis. Recorded XRPD patterns have been compared to the one recorded for the salts or free base as received (see FIGS. 8-11).

[2] = XRPD analysis of solid residues collected from the water solubility assay; format: physicochemical; conditions: solids in suspension in water collected after 24 h stirring, compared to material as received
Experimental: XRPD analysis was conducted with a Bruker D8-Advance diffractometer, type: Bragg-Bentano. Source CuKα1, λ=1.5406 Å and CuKα2, λ2=1.54439 Å. Generator: 35 kV-40 mA. Detector: Lynx Eye.
The sample was analyzed using the following protocol: Around 3 mg of the test compound delivered as solid material is gently grounded to homogenize the powder and deposed on zero-diffraction Silicon sample holder. The sample holder is then placed in the X-Ray Diffractometer chamber.
The copper anode X-ray source is turned on using a generator set at 35 kV voltage and at 40 mA intensity. While X-ray beam irradiates the sample, both X-ray source and X-ray detector move on the goniometer with equal 0 angle: diffractometer in Bragg-Brentano configuration. XRPD pattern is recorded in the [2°; 40°] 2θ angle range by step of 0.040 in 20 and for 1 second at each angle step.
as §1

[3] = In vitro permeation testing in Franz cells; format: in vitro ADME; conditions: human abdominal skin, Franz cell
Experimental: In vitro permeation testing was performed using human abdominal skin from 3 donors and 2 samples per donor with a thickness of 400 μm (±100 μm). The samples were used in Franz cell 2 cm^2 of diameter and a receptor volume of 3 mL (PBS+4% BSA (Bovine Serum Albumin).
The receptor compartment was surrounded by a water jacket heated to 37° C.±1° C. insuring a skin surface temperature of 32° C.±1° C. The receptor compartment is separated from the donor compartment by the skin membrane where the epidermis side faces the donor. Receptor compartments containing magnetic stirrer bar, were filled with the receptor fluid in such a way to prevent any formation of air-bubbles. During the diffusion experiment, receptor fluids were continuously stirred in order to ensure homogenization.
Abdominal skins from aesthetic surgery were used in this study. Skins, upon arrival, were separated from hypodermis with the help of tweezers and a scalpel blade. Skins were gently washed and stored flat in aluminum foil for freezing at −20° C. At the day of experiment, skins were thawed then cut in smaller pieces to fit with diffusion cell geometry. In this experiment three donors were used. Skin specimens were mounted onto Franz diffusion cells with PBS+4% Bovine Serum Albumin as a receptor fluid. […]
Following at least 45 min equilibrium with receptor fluid, skin integrity is assessed by Transepidermal Water Loss (TEWL) measurements. […] TEWL is again measured and cells still depicting a high water flux are recorded. […] Individual TEWL values for each skin specimen used, room temperature and relative humidity were also recorded.
Test Items were applied at a dose of 5 mg/cm^2 for 24 hours on the skin samples in the Franz cell. At the end of exposure, the following samples were recovered: Stratum corneum (not analysed), epidermis, dermis and receptor fluid were collected analysed for API content.
The samples were analyzed following LC/MS/MS method internally certified. […] Percutaneous fluxes were calculated as the ratio of permeated amounts in receptor fluid (RF) of each individual cell to the duration of exposure (24 h).

[4] = Glycerin/Water 5/95 (v/v), aqueous with cosolvent or surfactant or cyclodextrin, Glycerin/Water 5/95 (v/v), room temperature, 24 h, read-out: Solubility, Glycerin/Water 5/95 (v/v)
[5] = Glycerin/Water 10/90 (v/v), aqueous with cosolvent or surfactant or cyclodextrin, Glycerin/Water 10/90 (v/v), room temperature, 24 h, read-out: Solubility, Glycerin/Water 10/90 (v/v)
[6] = Glycerin/Water 20/80 (v/v), aqueous with cosolvent or surfactant or cyclodextrin, Glycerin/Water 20/80 (v/v), room temperature, 24 h, read-out: Solubility, Glycerin/Water 20/80 (v/v)
[7] = Transcutol/Water 10/90 (v/v), aqueous with cosolvent or surfactant or cyclodextrin, Transcutol/Water 10/90 (v/v), room temperature, 24 h, read-out: Solubility, Transcutol/Water 10/90 (v/v)
[8] = glycerin, organic solvent or mixture, glycerin, room temperature, 24 h, read-out: Solubility, Glycerin
[9] = water, water, orbital stirring at room temperature for 24 h, read-out: Solubility, Water
[10] = Glycerin/Water 5/95 (v/v), room temperature, 24 h
[11] = Glycerin/Water 10/90 (v/v), room temperature, 24 h
[12] = Glycerin/Water 20/80 (v/v), room temperature, 24 h
[13] = Transcutol/Water 10/90 (v/v), room temperature, 24 h
[14] = glycerin, room temperature, 24 h
[15] = water, orbital stirring at room temperature for 24 h
[16] = 5 mg/cm^2 for 24 hours, 0.63 w/w % phosphate salt vs 0.5 w/w % free base

Compound | solubility at 24 h [1, 4] [µg/mL] | solubility at 24 h [1, 5] [µg/mL] | solubility at 24 h [1, 6] [µg/mL] | solubility at 24 h [1, 7] [µg/mL] | solubility at 24 h [1, 8] [µg/mL] | solubility at 24 h [1, 9] [µg/mL] | XRPD of solid residues in water [2] | Solubility, Glycerin/Water 5/95 (v/v) [1, 10] [µg/mL] | Solubility, Glycerin/Water 10/90 (v/v) [1, 11] [µg/mL] | Solubility, Glycerin/Water 20/80 (v/v) [1, 12] [µg/mL] | Solubility, Transcutol/Water 10/90 (v/v) [1, 13] [µg/mL] | Solubility, Glycerin [1, 14] [µg/mL] | Solubility, Water [1, 15] [µg/mL] | ratio of percutaneous flux over dermis concentration, phosphate salt compared to free base [3, 16] | skin permeability coefficient (Kp), phosphate salt relative to free base [3, 16] [times] | permeability of formulation compared to free base formulation ([3]; 24 hours, 10% w/w propylene glycol of the free base formulation replaced with water)
CC(C)CC(C)n1nc(-c2ccc3oc(N)nc3c2)c2c(N)nc(N)nc21.O=C(O)CC(=O)O (stereo not shown) [Malonate Salt] | 2700 ± 200 | 2900 ± 200 | 3500 ± 200 | 3700 ± 200 | 24700 ± 300 | 2200 | Crystalline Phase conversion |  |  |  |  |  |  |  |  | 
CC(C)CC(C)n1nc(-c2ccc3oc(N)nc3c2)c2c(N)nc(N)nc21.O=C(O)C[C@H](O)C(=O)O (stereo not shown) [Malate Salt] | 2100 ± 300 | 2200 ± 200 | 2900 ± 200 | 3100 ± 300 | 21100 ± 200 | 1600 | No crystalline phase conversion |  |  |  |  |  |  |  |  | 
CC(C)CC(C)n1nc(-c2ccc3oc(N)nc3c2)c2c(N)nc(N)nc21 (stereo not shown) [Phosphate Salt] |  |  |  |  |  |  | No crystalline phase conversion | 4300 ± 200 | 4700 ± 200 | 5700 ± 200 | 5500 ± 200 | 15800 ± 300 | 3900 ± 200 | over 600 times | 3 | superior permeability
CC(C)CC(C)n1nc(-c2ccc3oc(N)nc3c2)c2c(N)nc(N)nc21 (stereo not shown) [Free Base, 3-(2-Amino-1,3-benzoxazol-5-yl)-1-(1,3-dimethylbutyl)pyrazolo[3,4-d]pyrimidine-4,6-diamine] |  |  |  |  |  |  | No crystalline phase conversion | 29 | 45 | 71 | 256 | 6400 ± 300 | 180 |  |  | 
